Converted amounts (≈) assume the structure as drawn. Where two headings read alike, the source gives them in different places.
Tests used:
[1] = system: human mammary carcinoma MCF7 cells; assay: antimitotic activity, percentage of mitotic cells in chromosome spreads; assay type: cell-based; details: for antimitotic activity, in words / IC50: 20 h treatment; for IC50: Homo sapiens
Description: • 3. Compounds described herein were comparatively tested for their antimitotic activity against human mammary carcinoma MCF7 cells.
MCF7 cells were grown as a monolayer in RPMI supplemented with 15% fetal calf serum and antibiotics at 37° C. in humidified 10% CO2. All compounds were dissolved in dimethyl sulfoxide except for vinblastine (a known drug) which was a 1 mg/ml solution in physiological saline. Exponentially growing MCF7 cells were treated with different drug concentrations for 20 h, prepared for chromosome spreads, and the percentage of mitotic cells determined by fluorescence microscopy. Hemiasterlin, Hemiasterlin A and modified compounds were very potent antimitotic agents, with IC50 values of 0.3 nM and 3 nM respectively.

[2] = system: human ovarian carcinoma HEY; assay: in vitro cytotoxicity versus human ovarian carcinoma HEY; assay type: cell-based
Description: (§1) Coupling of the peptide A-B to amino acid moiety of C (5) was carried out in a similar way. [drawing 25] [drawing 26] [drawing 27] Testing of Compounds • 1. The cytotoxicity of compounds described herein have been tested as described in J. Immunol. Methods, 65, 55-63, 1983 and the results are provided in Table 4 below, wherein P388 refers to in vitro test versus murine leukaemia P388, U373 refers to in vitro human glioblastoma/astrocytoma U373, HEY refers to in vitro human ovarian carcinoma HEY, MCF7 refers to in vitro human breast cancer MCF7. • 2.

murine leukaemia P388 = assay: in vitro cytotoxicity versus murine leukaemia P388; assay type: cell-based; details: Mus musculus
Description: as §1

[3] = system: human glioblastoma/astrocytoma U373; assay: in vitro cytotoxicity versus human glioblastoma/astrocytoma U373; assay type: cell-based; details: for IC50: U373 MG
Description: as §1

human breast cancer MCF7 = assay: in vitro cytotoxicity versus human breast cancer MCF7; assay type: cell-based
Description: as §1

MCF7 cells = assay: morphology of mitotic spindles by indirect immunofluorescence (β-tubulin antibody, bisbenzimide); assay type: cell-based, human
Description: The effect of Hemiasterlin and Hemiasterlin A on the morphology of their mitotic spindles was examined by indirect immunofluorescence using a monoclonal antibody to β-tubulin and the distribution of their chromosomes using the fluorescent DNA dye bisbenzimide.

P388 leukaemia cells = assay: in vivo P388 leukaemia model in mice
[4] = read-out: IC50 Values cell mitosis

SMILES: CN[C@H](C(=O)N[C@H](C(=O)N(C)[C@H](/C=C(\C)C(=O)O)C(C)C)C(C)(C)C)C(C)(C)c1c[nH]c2ccccc12 [Compound 2, Hemiasterlin A]
- lowest concentration causing maximal mitotic arrest [1]: 10 nM
- antimitotic activity, in words [1]: more potent than Taxol, Vinblastine and Nocodazole
- IC50 [1, 4]: 1.02 ng/mL
- IC50 ([1]; read-out: antimitotic IC50): 3 nM
- IC50 [2]: 7.6 ng/mL (≈ 14.8 nM)
- IC50 (murine leukaemia P388): 0.00171 ng/mL (≈ 0.00334 nM)
- IC50 [3]: 1.5 ng/mL (≈ 2.93 nM)
- IC50 (human breast cancer MCF7): 1.54 ng/mL (≈ 3 nM)
- mitotic spindle morphology (MCF7 cells; at 2 nM): no completely normal spindles were seen
- effect on microtubules (MCF7 cells; at 10 nM): caused microtubule depolymerisation in mitotic cells

SMILES: COC(=O)Nc1nc2ccc(C(=O)c3cccs3)cc2[nH]1 [Nocodazole]
- mitotic spindle morphology (MCF7 cells; half-maximal concentrations): produced the same types of abnormal spindle as hemiasterlin A
- effect on microtubules (MCF7 cells; high concentrations): microtubule depolymerisation in mitotic cells

SMILES: CCOC(=O)/C(C)=C/[C@H](C(C)C)N(C)C(=O)[C@@H](NC(=O)[C@@H](NC)C(C)(C)c1cn(C)c2ccccc12)C(C)C
- IC50 (human breast cancer MCF7): 100 ng/mL (≈ 185 nM)

SMILES: CN[C@H](C(=O)N[C@H](C(=O)N(C)[C@H](/C=C(\C)C(=O)O)C(C)C)C(C)(C)C)C(C)(C)c1cn(C)c2ccccc12 [Compound A, Hemiasterlin]
- antimitotic activity, in words [1]: more potent than Taxol, Vinblastine and Nocodazole
- IC50 [1, 4]: 0.158 ng/mL
- IC50 ([1]; read-out: antimitotic IC50): 0.3 nM
- IC50 [2]: 1.4 ng/mL (≈ 2.66 nM)
- in vivo tests, result in words (P388 leukaemia cells; in vivo tests per NIH Publication No. 84-2635): cytotoxic
- long term survivors (P388 leukaemia cells; mice injected with 1×10^6 P388 leukaemia cells, 5 daily doses of 0.45 μg): several long term survivors
- %TC (P388 leukaemia cells; mice injected with 1×10^6 P388 leukaemia cells, 5 daily doses of 0.45 μg begun 24 hours after implantation): 223%
- IC50 (murine leukaemia P388): 0.0457 ng/mL (≈ 0.0868 nM)
- IC50 [3]: 12 ng/mL (≈ 22.8 nM)
- IC50 (human breast cancer MCF7): 0.158 ng/mL (≈ 0.3 nM)

SMILES: C=C1C[C@H](C)C(=O)N[C@@H](C)C(=O)N(C)[C@H](Cc2ccc(O)c(I)c2)C(=O)N[C@@H](C)C(=O)O[C@@H](C)C[C@@H](C)C1=O [Compound 1, Geodiamolide G]
- IC50 Values HEY [2]: 8600 ng/mL (≈ 13100 nM)
- IC50 Values U373 [3]: 7700 ng/mL (≈ 11700 nM)

SMILES: CC[C@]1(O)C[C@@H]2CN(CCc3c([nH]c4ccccc34)[C@@](C(=O)OC)(c3cc4c(cc3OC)N(C)[C@H]3[C@@](O)(C(=O)OC)[C@H](OC(C)=O)[C@]5(CC)C=CCN6CC[C@]43[C@@H]65)C2)C1 [Vinblastine]
- mitotic spindle morphology (MCF7 cells; half-maximal concentrations): produced the same types of abnormal spindle as hemiasterlin A
- effect on microtubules (MCF7 cells; high concentrations): microtubule depolymerisation in mitotic cells

SMILES: CN[C@H](C(=O)N[C@H](C(=O)N(C)[C@H](CC(C)C(=O)O)C(C)C)C(C)(C)C)C(C)(C)c1cn(C)c2ccccc12 (stereo partly shown)
- IC50 [1, 4]: 1.06 ng/mL

SMILES: CN[C@H](C(=O)N[C@H](C(=O)N(C)[C@H](/C=C(\C)C(=O)O)C(C)C)C(C)C)C(C)(C)c1c[nH]c2ccccc12 [Compound 3, Hemiasterlin B]
- IC50 [1, 4]: 9.96 ng/mL
- IC50 [2]: 16 ng/mL (≈ 32.1 nM)
- IC50 (murine leukaemia P388): 7 ng/mL (≈ 14 nM)
- IC50 (human breast cancer MCF7): 15 ng/mL (≈ 30.1 nM)

SMILES: CN[C@H](C(=O)N[C@H](C(=O)N(C)[C@H](/C=C(\C)C(=O)N[C@@H](CCCNC(=N)N)C(=O)O)C(C)C)C(C)(C)C)C(C)(C)c1c[nH]c2ccccc12
- IC50 [2]: 190 ng/mL (≈ 284 nM)
- IC50 (murine leukaemia P388): 7.3 ng/mL (≈ 10.9 nM)
- IC50 [3]: 270 ng/mL (≈ 404 nM)
- IC50 (human breast cancer MCF7): 6800 ng/mL (≈ 10200 nM)

SMILES: CC(=O)O[C@H]1C(=O)[C@@]2(C)[C@H]([C@H](OC(=O)c3ccccc3)[C@]3(O)C[C@H](OC(=O)[C@H](O)[C@@H](NC(=O)c4ccccc4)c4ccccc4)C(C)=C1C3(C)C)[C@]1(OC(C)=O)CO[C@@H]1C[C@@H]2O [Taxol]
- mitotic spindle morphology (MCF7 cells; half-maximal concentrations): produced the same types of abnormal spindle as hemiasterlin A
- effect on microtubules (MCF7 cells; high concentrations): causing bundling of cytoplasmic microtubules in interphase cells and very dense multiple asters in mitotic cells

SMILES: CN[C@H](C(=O)N[C@H](C(=O)N(C)[C@H](/C=C(\C)C(=O)OC)C(C)C)C(C)(C)C)C(C)(C)c1cn(C)c2ccccc12
- IC50 [1, 4]: 0.216 ng/mL
- IC50 (human breast cancer MCF7): 5.4 ng/mL (≈ 9.99 nM)

— patent US6870028B1 (priority 1995, dated 2005)
